Assays:
Assay type in all cases: functional, Homo sapiens
Details in all cases: Homo sapiens, Concentration 10 uM; read-out: Cell Viability
Colon cancer organoid [1] = assay: Targeting of F14 CAF-induced therapy resistance in O23 CRC organoid-stroma co-culture. Cell viability is reported with Gefitinib.
Colon cancer organoid [2] = assay: Targeting of F14 CAF-induced therapy resistance in O23 CRC organoid-stroma co-culture. Cell viability is reported without Gefitinib.
Colon cancer organoid [3] = assay: Targeting of F14 CAF-induced therapy resistance in O14 CRC organoid-stroma co-culture. Cell viability is reported with Gefitinib.
Colon cancer organoid [4] = assay: Targeting of F14 CAF-induced therapy resistance in O14 CRC organoid-stroma co-culture. Cell viability is reported without Gefitinib.
Colon cancer organoid [5] = assay: Targeting of F14 CAF-induced therapy resistance in O23 CRC organoid-stroma co-culture. Cell viability is reported with SN-38.

SMILES | viability at 10 µM (Colon cancer organoid [1]) | viability at 10 µM (Colon cancer organoid [2]) | viability at 10 µM (Colon cancer organoid [3]) | viability at 10 µM (Colon cancer organoid [4]) | viability at 10 µM (Colon cancer organoid [5])
CCOC(=O)c1c(/C(C#N)=C\N)c2ccc(Cl)c(Cl)c2n1C | 52% | 99.7% | 47.7% | 106% | 68.1%
CNc1nc(-c2ccc3c(N)n[nH]c3c2)cc(N2C[C@@H](C(=O)NC3CCCCC3)CC[C@H]2C)n1 | 24.3% | 44.8% | 17.9% | 57.6% | 39.8%
O=C1[C@H](Cc2ccc(O)cc2)N2C(=O)CCN(C(=O)NCc3ccccc3)[C@H]2CN1Cc1cccc2ccccc12 | 85.3% | 125% | 22% | 37.1% | 103%
Cc1cc(C)cc(C(=O)NOCCCCCC(=O)NO)c1 | 220% | 193% | 31.1% | 28.3% | 130%
Cc1sc2c(c1C)C(c1ccc(Cl)cc1)=N[C@H](CC(=O)OC(C)(C)C)c1nnc(C)n1-2 | 72% | 130% | 55.8% | 103% | 73.3%
CC(C)NC(=O)N1CC[C@H](NC2=Nc3cc(F)ccc3N(CC(F)F)c3ccc(Cl)cc32)C1 | 61.4% | 79% | 36% | 89.7% | 42.9%
COc1cc(-c2cn([C@H]3CCc4c(F)cccc4N(CC(F)(F)F)C3=O)nn2)ccc1-n1cnc(C)c1 | 72% | 86.7% | 38.5% | 108% | 69.6%
Cc1cc(=O)n(C)c2cc(N3C(=O)CC[C@H](NS(=O)(=O)CC(C)C)[C@H]3c3ccc(Cl)cc3)ccc12 | 66% | 144% | 72.6% | 75.8% | 81.7%
CN1CCN(c2ccc(-c3cccc(CN4CCOCC4)c3)cc2NC(=O)c2c[nH]c(=O)cc2C(F)(F)F)CC1 | 62.5% | 131% | 65.8% | 99.7% | 102%
Cc1nc(N2CC[C@H](O)C2)ncc1-c1cc(C(F)(F)F)cc2[nH]ncc12 | 51.5% | 123% | 21.1% | 91% | 82.7%
C[C@@H]1CC(=O)Nc2cccc(-c3ccc4c(c3)c(-c3cnn(C)c3)nn4C)c2N1 | 69% | 115% | 21.1% | 43.6% | 70.4%
CCNC(=O)c1cc2c(N3CCOC[C@@H]3C)ccnc2n1C | 38.3% | 104% | 36.3% | 70.2% | 84.1%
CN(C)[C@H]1CN(C2CCc3cccc(F)c32)C[C@@H]1c1ccc(N2CCN(S(C)(=O)=O)CC2)cc1 (stereo not given in full) | 107% | 81.8% | 68.1% | 70.2% | 112%
CO[C@H]1CNC[C@@H](OCC2CCC(F)(F)CC2)[C@@H]1Nc1ncc(-c2cncc(C)c2)c2cc(C)c(=O)[nH]c12 | 78.8% | 104% | 65.2% | 78.7% | 81.8%
Cc1sc2c(c1C)C(c1ccc(Cl)cc1)=N[C@@H](CC(=O)NCCCCCCCCNC(=O)COc1cccc3c1C(=O)N(C1CCC(=O)NC1=O)C3=O)c1nnc(C)n1-2 (stereo not given in full) | 5.19% | 6.5% | 2.25% | 3.56% | 4.21%
COc1cc(Nc2ccnc3ccc(Br)cc23)cc(OC)c1OC | 6.32% | 35% | 8.76% | 18.2% | 12.5%
CCN(CC)S(=O)(=O)Nc1cccc(-c2ccc3c(NC(=O)C4CC4)n[nH]c3c2)c1 | 65.5% | 120% | 50.5% | 144% | 69.2%
CC(C)C(=O)Nc1n[nH]c2cc(-c3cccc(NS(=O)(=O)C4CC4)c3)ccc12 | 54.8% | 115% | 57.8% | 129% | 62.1%
CN1CCN(Cc2cc(NC(=O)c3ccc4c(c3)CN(c3ccccc3)CC4)cc(C(F)(F)F)c2)CC1 | 64.5% | 112% | 50.8% | 115% | 63.3%
Cc1cn(-c2cc(NC(=O)c3ccc4c(c3)CN(c3cncnc3)C[C@@H]4C)cc(C(F)(F)F)c2)cn1 | 63.8% | 115% | 50.6% | 149% | 57.5%
CN(C)C(=O)/C(C#N)=C/c1ccc(-c2nc3cnc4[nH]ccc4c3n2C2CCCCC2)o1 | 56.7% | 96.1% | 47.2% | 117% | 65.2%

SMILES | viability at 10 µM (Colon cancer organoid [1]) | viability at 10 µM (Colon cancer organoid [2]) | viability at 10 µM (Colon cancer organoid [3]) | viability at 10 µM (Colon cancer organoid [4]) | viability at 10 µM (Colon cancer organoid [5])
COc1c(C)cc(NC(=O)c2nn(Cc3ccc(F)cc3)c3c2CN(C(=O)c2ccc[nH]2)C[C@]3(C)C(N)=O)cc1C | 66.4% | 81.4% | 52.8% | 121% | 73.7%
NC1(c2ccc(-c3nc4ccn5c(=O)[nH]nc5c4cc3-c3ccccc3)cc2)CCC1 | 19.9% | 24.5% | 32.7% | 53.7% | 19.5%
Cn1cc(-c2ccc3occ(-c4ccccc4-c4ccccc4)c3n2)cn1 | 89.5% | 153% | 75.6% | 115% | 63.4%
Cc1cccc(-c2cnc3occ(-c4ccc(C(=O)O)c(C5CCCC5)c4)c3c2)c1 | 75.6% | 111% | 52.4% | 112% | 66.7%
CN(C)C(=O)c1ccc(-c2cc(C(=O)N[C@@H]3CCc4ccccc43)no2)cc1O | 61.6% | 83.1% | 33.6% | 77% | 64.6%
COc1cc(-c2cn([C@H]3CCc4ccccc4N(CC(F)(F)F)C3=O)nn2)ccc1-n1ccc(C)n1 | 38.9% | 81.1% | 41.1% | 113% | 48.6%
Cn1cc(-c2ccc3occ(-c4cccc(-c5ccncc5)c4)c3n2)cn1 | 87.7% | 114% | 56.4% | 112% | 65.6%
O=C(NCCCN1CCOC1=O)c1cnc(NCc2cc(Br)ccc2Br)nc1NC1CCCC1 | 55.2% | 118% | 51.8% | 126% | 61.8%
CN(C)C(=O)c1ccc(-c2cc(C(=O)N(C)C3CCCC3)no2)cc1O | 55.9% | 111% | 52.8% | 103% | 76.4%
CCN(Cc1ccc(Cl)cc1)c1ncc(C(=O)NCCCN2CCCC2=O)c(NC2CCCC2)n1 | 74.3% | 105% | 46.6% | 108% | 61.6%
O=C(NCc1ccccc1)c1ccc(S(=O)(=O)NCc2ccccc2)cc1 | 58.1% | 97% | 40.5% | 103% | 82.9%
O=C(O)c1ccc(-c2coc3ncc(-c4ccccc4)cc23)cc1Cl | 172% | 214% | 73.9% | 71.5% | 103%
CCCCN(Cc1ccccc1)C(=O)c1ccc(S(=O)(=O)Nc2ccccc2)cc1 | 52.2% | 125% | 48.8% | 80.8% | 63.6%
CN(C)C(=O)/C(C#N)=C/c1ccc(-c2nc3cnc4c(ccn4C)c3n2C2CCCCC2)o1 | 53.6% | 83.6% | 63.9% | 107% | 46.5%
c1ccc2oc(-c3csc(C4CCN(Cc5nc6ncccc6[nH]5)CC4)n3)cc2c1 | 66% | 159% | 37.9% | 94.5% | 60.8%
C[C@H]1CCCN1Cc1nc2cc(NC(=O)c3ccc4cnccc4c3)ccc2[nH]1 | 26.6% | 68.1% | 37.4% | 53.7% | 43.3%
COc1cc(Nc2nc(C)cc(-c3cnn4nc(OC)ccc34)n2)cc(C(F)(F)F)c1 | 68.9% | 119% | 52.6% | 115% | 59.6%
COc1cc(C(=O)N2CC[C@@H](O)[C@@H](N)C2)cc2nc(-c3cc4ccccc4n3CC3CC3)n(C)c12 | 73.5% | 112% | 58.8% | 107% | 75.5%
Cc1cc(CN)cc(C)c1-c1ncn(C)c1-c1cncn1C | 73.9% | 112% | 80.2% | 112% | 87.1%
CCn1c(-c2nc3cc(C(=O)N4CCCC(N)C4)ccc3n2C)cc2ccccc21 (stereo not given) | 83.2% | 139% | 65% | 76.9% | 79.2%

From ChEMBL document CHEMBL5608113, “Targeting of CAF-induced therapy resistance in CRC organoid-stroma co-cultures” (2024)
